Legend:
TcOYE [1] = assay: Electron spin resonance spectrum of the reaction product of TcOYE (radical generation); assay type: biochemical, Trypanosoma cruzi; conditions: JEOL X-band spectrometer
Method: Generation of radicals as a result of one-electron reduction is determined as follows. A hundred microliter of 5 mM tris-HCl buffer (pH 7.0) containing TcOYE and a substrate candidate is displaced with argon gas for 5 minutes to make an anaerobic environment. Then, 10 mM NADPH or NADH is added to the reaction mixture and allowed to react at 25° C. or 37° C. for 3 minutes under anaerobic condition. Part of the reaction mixture is analyzed with an electron spin resonance spectrometer (JEOL X-band spectrometer) to determine the generation of radicals. The measurement conditions and analytical method are described in the paper below. It is believed that the radicals produced react with oxygen to generate superoxide anion radicals (Moreno S. N. J. et al., J. Biol. Chem. 259: 6298-6305, 1984), which kill Trypanosoma cruzi.
The semiquinone radicals reacted with oxygen and produced superoxide anion radicals, which kill the protozoa (see FIG. 8).

recombinant TcOYE = assay type: biochemical, Trypanosoma cruzi; conditions: pH 7
TcOYE [2] = assay: Inhibition of the PGH2-F2α reductase activity of TcOYE; assay type: biochemical, Trypanosoma cruzi; conditions: FIG. 9
Method: An example of the reaction is as follows. For reaction under aerobic condition, 1 μl of 500 μM [1-14C]PGH2 solution (2.04 Gbq/mmol; acetone, DMSO or dimethylether diethylene glycol solution) is added to 100 μl of 100 mM phosphate buffer (pH 7.0) containing a NADPH production system (100 μM NADP, 100 μM glucose-6-phosphate, 1 unit of glucose-6-phosphate dehydrogenase), TcOYE and an inhibitor, and is allowed to react at 37° C. for two minutes. For reaction under anaerobic condition, after bubbling the reaction mixture with argon gas for five minutes, 100 μM NADPH or NADH and 1 μl PGH2 solution are added, and the mixture is allowed to react in argon gas at 37° C. for two minutes.
250 μl of a stop solution (diethyl ether:methanol:2M citric acid (30:4:1 mixed solution)) at −20° C. and an excess amount of anhydrous sodium sulfate are added to stop the reaction, and the remaining substrate ([1-14C]PGH2) and the enzymatic reaction product ([1-14C]PGF2α) are extracted in ether at the same time. Part (about 50 μl) of the ether layer is applied onto a silica gel thin layer (Merck & Co.) in a low-temperature room, and thin-layer chromatography (eluent:diethyl ether:methanol:acetic acid (90:2:1 mixed solution)) is performed in a refrigerated room at −20° C. After development, autoradiography of the thin layer plate is performed using the image analyzer FL2000 (Fuji Photo Film), and the substrate to product ratio is calculated to determine enzymatic activity.
The enzymatic reaction described above is conducted in the presence or absence of an inhibitor and a decrease in the reaction rate due to the inhibitor is examined to determine whether or not the reduction is inhibited. Because it is very likely that Trypanosoma cruzi uses prostaglandin to sustain parasitism in host cells, an inhibitor of TcOYE may be used to inhibit Trypanosoma cruzi parasitism in host cells.
Naphtoquinone compounds and nitro heterocyclic compounds that are reduced by TcOYE inhibit the PGH2-F2α reducing activity of TcOYE in a dose-dependent manner.

[3] = system: crude extract of Trypanosoma cruzi (PG synthesizing system); assay: Prostaglandin production from arachidonic acid by crude extract of Trypanosoma cruzi; assay type: biochemical
Method: The vegetative form (epimastigote) of Trypanosoma cruzi YNIH strain in the insect body (obtained from the National Institute of Infectious Diseases (1-23-1, Toyama, Shinjuku-ku, Tokyo)) was incubated by the conventional method (Nozaki T. et al., J. Biol. Chem. 276: 6516-6523, 2001) using synthetic culture medium. The cultured protozoa was destroyed by hyposmotic treatment and allowed to react with arachidonic acid, and the PGs produced were extracted with an organic solvent and separated/purified by HPLC.

CC1=CC(=O)c2ccccc2C1=O = assay: purified protein, by the assay type; conditions: other: cofactor NADPH (500 μM), argon-bubbled 0.1 M phosphate buffer pH 7.0, decrease in absorption at 340 nm
[4] = system: O=[N+]([O-])c1cc[n+]([O-])c2ccccc12; assay: purified protein, by the assay type; conditions: other: cofactor NADPH (500 μM), argon-bubbled 0.1 M phosphate buffer pH 7.0, decrease in absorption at 340 nm
C[n+]1c2ccccc2nc2ccccc21 = assay: purified protein, by the assay type; conditions: other: cofactor NADPH (500 μM), argon-bubbled 0.1 M phosphate buffer pH 7.0, decrease in absorption at 340 nm
[5] = system: [H][C@]12C[C@]([H])(OO1)[C@H](C/C=C\CCCC(=O)O)[C@H]2/C=C/[C@@H](O)CCCCC; assay: purified protein, by the assay type; conditions: other: cofactor NADPH (500 μM), argon-bubbled 0.1 M phosphate buffer pH 7.0, decrease in absorption at 340 nm
[6] = system: CC1CS(=O)(=O)CCN1/N=C/c1ccc([N+](=O)[O-])o1; assay: purified protein, by the assay type; conditions: other: cofactor NADPH (500 μM), argon-bubbled 0.1 M phosphate buffer pH 7.0, decrease in absorption at 340 nm
[7] = system: CC1(C)CCC2=C(O1)c1ccccc1C(=O)C2=O; assay: purified protein, by the assay type; conditions: other: cofactor NADH (500 μM), argon-bubbled 0.1 M phosphate buffer pH 7.0, decrease in absorption at 340 nm

Row | Compound | Type of reduction and radical production (ESR) (TcOYE [1]) | Reduction of the compound by TcOYE (substrate specificity) (recombinant TcOYE) | further results
1 | 2β,6α-dimethyl-8α-(2-methyl-1-oxo-butoxy)-mevinic acid lactone [mevinolin] | underwent two-electron reduction and did not produce radicals | reduces | –
2 | O=[N+]([O-])c1cc[n+]([O-])c2ccccc12 [4-nitroquinoline-N-oxide] | underwent two-electron reduction and did not produce radicals | reduces | Inhibition of the PGH2-F2α reducing activity of TcOYE (TcOYE [2]): weak
3 | CCCCC/C=C\C=C\C(=O)CCCCCCCC(=O)O [9-oxo-10E,12Z-octadecadienoic acid] | – | reduces | –
4 | CC/C=C\C[C@@H]1C(=O)C=C[C@@H]1CCCCCCCC(=O)O [12-oxo-phytodienoic acid, 4-oxo-5β-(2Z-pentenyl)-2-cyclopentene-1β-octanoic acid] | – | reduces | –
5 | CC(=O)Oc1ccccc1C(=O)O [Aspirin] | – | – | Production of PGs (PGD2, PGE2, PGF2) by crude extract ([3]; 3 μM Aspirin): unaffected
6 | O=C(Cn1ccnc1[N+](=O)[O-])NCc1ccccc1 [benznidazole] | – | did not reduce | –
7 | Clc1ccc(COC(Cn2ccnc2)c2ccc(Cl)cc2Cl)cc1 (stereo not shown) [econazole] | – | reduces | –
8 | OO [hydrogen peroxide] | – | reduced | –
9 | COc1ccc2c(c1)c(CC(=O)O)c(C)n2C(=O)c1ccc(Cl)cc1 [indomethacin] | – | – | Production of PGs (PGD2, PGE2, PGF2) by crude extract ([3]; 42 μM indomethacin): unaffected
10 | CC1=CC(=O)c2ccccc2C1=O [menadion] | underwent one-electron reduction and produced semiquinone radicals | reduces | Inhibition of the PGH2-F2α reducing activity of TcOYE (TcOYE [2]): weak
11 | CC1CS(=O)(=O)CCN1/N=C/c1ccc([N+](=O)[O-])o1 (stereo not shown) [nifurtimox] | underwent two-electron reduction and did not produce radicals | reduces | Inhibition of the PGH2-F2α reducing activity of TcOYE (TcOYE [2]): inhibits the activity most strongly
12 | C[n+]1c2ccccc2nc2ccccc21 [phenazine methosulfate, 5-methyl-phenaziummethylsulfate] | – | reduces | –
13 | CC1(C)CCC2=C(O1)c1ccccc1C(=O)C2=O [β-lapachone] | underwent one-electron reduction and produced semiquinone radicals | reduces | Inhibition of the PGH2-F2α reducing activity of TcOYE (TcOYE [2]): weak
14 | recombinant TcOYE (Trypanosoma cruzi old yellow enzyme, PGH2-F2α reductase, flavoprotein, SEQ ID NO: 2, 379 amino acids; expressed in E. coli BL21 from pGEX-4T-1 as fusion with glutathione transferase, recovered by thrombin treatment) (Trypanosoma cruzi) | – | – | Km (CC1=CC(=O)c2ccccc2C1=O): 0.82 µM; Km [4]: 9.5 µM; Km (C[n+]1c2ccccc2nc2ccccc21): 10.4 µM; Km [5]: 5.0 µM; Km [6]: 19.0 µM; Km [7]: 0.17 µM

— patent publication US20060275329A1 (priority 2002, published 2006)
